Laboratory results taken from patent US20230265151A1, “GIP/GLP1 CO-AGONIST COMPOUNDS” (priority 2020, published 2023).
Read-outs that look alike come from different tables or passages of the source.

Assays:
hGLP-1R = hGLP-1R (Homo sapiens, UniProt P43220); assay: Functional cAMP formation (HTRF) in HEK-293 clonal cells expressing hGLP-1R, 0.1% bovine casein, without or with 1.0% human serum albumin; format: cell-based; set-up: expressed in transfected cells; settings: for Emax: percent of maximal response to GLP-1(7-36)NH2, arithmetic mean; for EC50: cAMP
In short: (§1)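 Cells were stimulated with peptide for 30 min at 37° C, then lysed in buffer carrying cAMP-d2 and anti-cAMP Eu3+-cryptate for a competitive HTRF read after at least 60 min at room temperature. The 665/620 nm ratio was converted to nM cAMP against a standard curve.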

hGCGR = biological target: T1, hGCGR (Homo sapiens, UniProt P47871); assay: Functional cAMP formation (HTRF) in HEK-293 clonal cells expressing hGCGR, 0.1% bovine casein, without or with 1.0% human serum albumin; format: cell-based; settings: cAMP, 37° C.
T1 construct: expressed in transfected cells
In short: as §1

hGIPR = biological target: T2, hGIPR (Homo sapiens, UniProt P48546); assay: Functional cAMP formation (HTRF) in HEK-293 clonal cells expressing hGIPR, 0.1% bovine casein, without or with 1.0% human serum albumin; format: cell-based; settings: for Emax: percent of maximal response to GIP(1-42)NH2; for EC50: cAMP
T2 construct: expressed in transfected cells
T2 sequence (P48546 22-466): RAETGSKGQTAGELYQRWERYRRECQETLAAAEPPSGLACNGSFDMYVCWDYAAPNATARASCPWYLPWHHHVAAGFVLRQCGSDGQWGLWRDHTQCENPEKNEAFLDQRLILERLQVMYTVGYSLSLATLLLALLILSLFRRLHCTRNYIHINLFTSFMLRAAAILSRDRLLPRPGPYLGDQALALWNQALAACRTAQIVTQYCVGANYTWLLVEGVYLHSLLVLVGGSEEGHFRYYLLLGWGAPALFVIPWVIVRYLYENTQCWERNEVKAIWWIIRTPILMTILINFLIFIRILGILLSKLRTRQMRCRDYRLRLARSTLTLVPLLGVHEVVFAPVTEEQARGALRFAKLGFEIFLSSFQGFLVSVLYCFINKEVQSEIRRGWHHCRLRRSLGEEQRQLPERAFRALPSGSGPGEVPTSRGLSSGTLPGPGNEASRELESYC
In short: as §1

[1] = biological target: T3, human GLP-1 receptor (hGLP-1R) (Homo sapiens, UniProt P43220); assay: [125I]-GLP-1 binding, SPA with membranes of HEK293 cells expressing hGLP-1R
T3 construct: expressed in transfected cells; crude membranes

[2] = biological target: T4, human GIP receptor (hGIPR) (Homo sapiens, UniProt P48546); assay: [125I]-GIP binding, SPA with membranes of CHO cells expressing hGIPR
T4 construct: expressed in transfected cells; crude membranes
T4 sequence (P48546 22-466): T2 sequence (P48546 22-466)

[3] = HEK293, cAMP, 37° C., 0.1% bovine casein, read-out: hGLP-1R Emax, % ± SEM
[4] = 37° C., 0.1% bovine casein (no human serum albumin), geometric mean, read-out: hGLP-1R EC50, nM (SEM, n)
[5] = 0.1% bovine casein (no human serum albumin), geometric mean, read-out: hGCGR EC50, nM (SEM, n)
[6] = 0.1% bovine casein and 1.0% human serum albumin, geometric mean (SEM, n), read-out: hGCGR EC50, nM (SEM, n)
[7] = HEK293, cAMP, 37° C., 0.1% bovine casein and 1.0% human serum albumin, read-out: hGIPR Emax, % ± SEM
[8] = 37° C., 0.1% bovine casein (no human serum albumin), geometric mean, read-out: hGIPR EC50, nM (SEM, n)
[9] = human GLP-1R, geometric mean (SEM, n), read-out: Binding Affinity Ki, nM (SEM, n) hGLP-1R
[10] = human GIPR, geometric mean (SEM, n), read-out: Binding Affinity Ki, nM (SEM, n) hGIPR
[11] = HEK293, read-out: hGLP-1R Emax, % ± SEM, cAMP, 37° C., 0.1% bovine casein
[12] = hGLP-1R EC50, nM (SEM, n), 37° C., 0.1% bovine casein (no human serum albumin), geometric mean
[13] = hGCGR EC50, nM (SEM, n), 0.1% bovine casein (no human serum albumin), geometric mean
[14] = hGCGR EC50, nM (SEM, n), 0.1% bovine casein and 1.0% human serum albumin, geometric mean (SEM, n)
[15] = hGIPR EC50, nM (SEM, n), 37° C., 0.1% bovine casein (no human serum albumin), geometric mean

T1 sequence (P47871 26-477): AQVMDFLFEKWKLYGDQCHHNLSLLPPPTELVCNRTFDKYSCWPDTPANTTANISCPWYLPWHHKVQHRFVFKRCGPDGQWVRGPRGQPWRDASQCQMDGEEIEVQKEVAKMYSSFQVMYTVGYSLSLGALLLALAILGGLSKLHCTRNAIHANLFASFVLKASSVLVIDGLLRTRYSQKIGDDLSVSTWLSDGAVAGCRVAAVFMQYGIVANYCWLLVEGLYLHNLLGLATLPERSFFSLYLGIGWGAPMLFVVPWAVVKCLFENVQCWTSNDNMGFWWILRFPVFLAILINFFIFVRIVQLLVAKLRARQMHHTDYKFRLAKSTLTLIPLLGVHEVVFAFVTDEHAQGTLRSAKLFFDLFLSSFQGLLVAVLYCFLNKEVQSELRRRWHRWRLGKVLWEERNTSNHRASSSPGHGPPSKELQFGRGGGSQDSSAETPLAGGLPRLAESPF
Chain of hGLP-1R (P43220 24-463): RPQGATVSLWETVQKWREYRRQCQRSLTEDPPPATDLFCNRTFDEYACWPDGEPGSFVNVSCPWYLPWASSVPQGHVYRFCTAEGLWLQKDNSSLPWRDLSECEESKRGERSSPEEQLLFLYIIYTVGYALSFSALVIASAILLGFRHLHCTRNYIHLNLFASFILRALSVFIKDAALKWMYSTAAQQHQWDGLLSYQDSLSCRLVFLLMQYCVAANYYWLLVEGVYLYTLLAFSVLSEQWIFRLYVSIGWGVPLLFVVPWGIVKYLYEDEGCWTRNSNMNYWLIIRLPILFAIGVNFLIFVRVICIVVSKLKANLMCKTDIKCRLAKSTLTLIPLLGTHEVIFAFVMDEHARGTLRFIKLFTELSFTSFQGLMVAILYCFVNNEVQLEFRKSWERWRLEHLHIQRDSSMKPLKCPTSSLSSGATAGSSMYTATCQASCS
T3 sequence (P43220 24-463): as above

Compound	Emax (hGLP-1R; [3]) [%]	EC50 (hGLP-1R; [4]) [nM]	EC50 (hGCGR; [5]) [nM]	EC50 (hGCGR; [6]) [nM]	Emax (hGIPR; [7]) [%]	EC50 (hGIPR; [8]) [nM]	EC50 (hGIPR; 37° C., 0.1% bovine casein and 1.0% human serum albumin, geometric mean (SEM, n), read-out: hGIPR EC50, nM (SEM, n)) [nM]	Ki [1, 9] [nM]	Ki [2, 10] [nM]	Emax (hGLP-1R; [11]) [%]	EC50 (hGLP-1R; [12]) [nM]	EC50 (hGLP-1R; hGLP-1R EC50, nM (SEM, n), 37° C., 0.1% bovine casein and 1.0% human serum albumin, geometric mean (SEM, n)) [nM]	EC50 (hGCGR; [13]) [nM]	EC50 (hGCGR; [14]) [nM]	Emax (hGIPR; HEK293, read-out: hGIPR Emax, % ± SEM, cAMP, 37° C., 0.1% bovine casein and 1.0% human serum albumin) [%]	EC50 (hGIPR; [15]) [nM]	Ki [1] [nM]	Ki [2] [nM]
CC[C@H](C)[C@H](NC(=O)[C@H](CC(C)C)NC(=O)[C@](C)(Cc1ccc(O)cc1)NC(=O)[C@H](CCCCNC(=O)COCCOCCNC(=O)CCCCCNC(=O)CC[C@H](NC(=O)CCCCCCCCCCCCC(=O)O)C(=O)O)NC(=O)[C@@H](NC(=O)[C@H](Cc1ccccc1)NC(=O)[C@H](CCCN)NC(=O)C(C)(C)NC(=O)[C@H](CCC(N)=O)NC(=O)[C@H](C)NC(=O)[C@H](CCC(N)=O)NC(=O)[C@H](CCCN)NC(=O)[C@H](CC(=O)O)NC(=O)[C@H](CC(C)C)NC(=O)[C@](C)(CC(C)C)NC(=O)[C@@H](NC(=O)C(C)(C)NC(=O)[C@H](Cc1ccncc1)NC(=O)[C@H](CC(=O)O)NC(=O)[C@H](CO)NC(=O)[C@@H](NC(=O)[C@](C)(Cc1ccccc1F)NC(=O)[C@@H](NC(=O)CNC(=O)[C@H](CCC(=O)O)NC(=O)C(C)(C)NC(=O)[C@@H](N)Cc1ccc(O)cc1)[C@@H](C)O)[C@@H](C)O)[C@@H](C)CC)[C@@H](C)CC)C(=O)N[C@@H](CCCCNC(=O)COCCOCCNC(=O)CCCCCNC(=O)CC[C@H](NC(=O)CCCCCCCCCCCCC(=O)O)C(=O)O)C(=O)NCC(=O)NCC(=O)N1CCC[C@H]1C(=O)N[C@@H](CO)C(=O)N[C@@H](CO)C(=O)NCC(=O)N[C@@H](C)C(=O)N1CCC[C@H]1C(=O)N1CCC[C@H]1C(=O)N1CCC[C@H]1C(=O)N[C@@H](CO)C(N)=O [Example 449]	112	0.16	> 9950	> 9950	92.1	0.0102	0.595	0.201	0.0133	–	–	–	–	–	–	–	–	–
CC[C@H](C)[C@H](NC(=O)[C@H](CC(C)C)NC(=O)[C@](C)(Cc1ccc(O)cc1)NC(=O)[C@H](CCCCNC(=O)COCCOCCNC(=O)CCCCCNC(=O)CC[C@H](NC(=O)CCCCCCCCCOc1ccc(C(=O)O)cc1)C(=O)O)NC(=O)[C@@H](NC(=O)[C@H](Cc1ccccc1)NC(=O)[C@H](CCCN)NC(=O)C(C)(C)NC(=O)[C@H](CCC(N)=O)NC(=O)[C@H](C)NC(=O)[C@H](CCC(N)=O)NC(=O)[C@H](CCCN)NC(=O)[C@H](CC(=O)O)NC(=O)[C@H](CC(C)C)NC(=O)[C@](C)(CC(C)C)NC(=O)[C@@H](NC(=O)C(C)(C)NC(=O)[C@H](Cc1ccncc1)NC(=O)[C@H](CC(=O)O)NC(=O)[C@H](CO)NC(=O)[C@@H](NC(=O)[C@](C)(Cc1ccccc1F)NC(=O)[C@@H](NC(=O)CNC(=O)[C@H](CCC(=O)O)NC(=O)C(C)(C)NC(=O)[C@@H](N)Cc1ccc(O)cc1)[C@@H](C)O)[C@@H](C)O)[C@@H](C)CC)[C@@H](C)CC)C(=O)N[C@@H](CCCCNC(=O)COCCOCCNC(=O)CCCCCNC(=O)CC[C@H](NC(=O)CCCCCCCCCOc1ccc(C(=O)O)cc1)C(=O)O)C(=O)NCC(=O)NCC(=O)N1CCC[C@H]1C(=O)N[C@@H](CO)C(=O)N[C@@H](CO)C(=O)NCC(=O)N[C@@H](C)C(=O)N1CCC[C@H]1C(=O)N1CCC[C@H]1C(=O)N1CCC[C@H]1C(=O)N[C@@H](CO)C(N)=O [Example 453]	–	–	–	–	–	–	–	–	–	116	0.2	5.47	> 9950	> 9950	92	0.0139	0.123	0.013
CC[C@H](C)[C@H](NC(=O)[C@H](CC(C)C)NC(=O)[C@](C)(Cc1ccc(O)cc1)NC(=O)[C@H](CCCCNC(=O)CCOCCOCCOCCNC(=O)CC[C@H](NC(=O)CCCCCCCCCCCCC(=O)O)C(=O)O)NC(=O)[C@@H](NC(=O)[C@H](Cc1ccccc1)NC(=O)[C@H](CCCN)NC(=O)C(C)(C)NC(=O)[C@H](CCC(N)=O)NC(=O)[C@H](C)NC(=O)[C@H](CCC(N)=O)NC(=O)[C@H](CCCN)NC(=O)[C@H](CC(=O)O)NC(=O)[C@H](CC(C)C)NC(=O)[C@](C)(CC(C)C)NC(=O)[C@@H](NC(=O)C(C)(C)NC(=O)[C@H](Cc1ccncc1)NC(=O)[C@H](CC(=O)O)NC(=O)[C@H](CO)NC(=O)[C@@H](NC(=O)[C@](C)(Cc1ccccc1F)NC(=O)[C@@H](NC(=O)CNC(=O)[C@H](CCC(=O)O)NC(=O)C(C)(C)NC(=O)[C@@H](N)Cc1ccc(O)cc1)[C@@H](C)O)[C@@H](C)O)[C@@H](C)CC)[C@@H](C)CC)C(=O)N[C@@H](CCCCNC(=O)CCOCCOCCOCCNC(=O)CC[C@H](NC(=O)CCCCCCCCCCCCC(=O)O)C(=O)O)C(=O)NCC(=O)NCC(=O)N1CCC[C@H]1C(=O)N[C@@H](CO)C(=O)N[C@@H](CO)C(=O)NCC(=O)N[C@@H](C)C(=O)N1CCC[C@H]1C(=O)N1CCC[C@H]1C(=O)N1CCC[C@H]1C(=O)N[C@@H](CO)C(N)=O [Example 458]	111	0.179	> 9950	> 9950	93.1	0.0121	–	0.266	0.0232	–	–	–	–	–	–	–	–	–
CC[C@H](C)[C@H](NC(=O)[C@H](CC(C)C)NC(=O)[C@](C)(Cc1ccc(O)cc1)NC(=O)[C@H](CCCCNC(=O)CCOCCOCCOCCNC(=O)CC[C@H](NC(=O)CCCCCCCCCOc1ccc(C(=O)O)cc1)C(=O)O)NC(=O)[C@@H](NC(=O)[C@H](Cc1ccccc1)NC(=O)[C@H](CCCN)NC(=O)C(C)(C)NC(=O)[C@H](CCC(N)=O)NC(=O)[C@H](C)NC(=O)[C@H](CCC(N)=O)NC(=O)[C@H](CCCN)NC(=O)[C@H](CC(=O)O)NC(=O)[C@H](CC(C)C)NC(=O)[C@](C)(CC(C)C)NC(=O)[C@@H](NC(=O)C(C)(C)NC(=O)[C@H](Cc1ccncc1)NC(=O)[C@H](CC(=O)O)NC(=O)[C@H](CO)NC(=O)[C@@H](NC(=O)[C@](C)(Cc1ccccc1F)NC(=O)[C@@H](NC(=O)CNC(=O)[C@H](CCC(=O)O)NC(=O)C(C)(C)NC(=O)[C@@H](N)Cc1ccc(O)cc1)[C@@H](C)O)[C@@H](C)O)[C@@H](C)CC)[C@@H](C)CC)C(=O)N[C@@H](CCCCNC(=O)CCOCCOCCOCCNC(=O)CC[C@H](NC(=O)CCCCCCCCCOc1ccc(C(=O)O)cc1)C(=O)O)C(=O)NCC(=O)NCC(=O)N1CCC[C@H]1C(=O)N[C@@H](CO)C(=O)N[C@@H](CO)C(=O)NCC(=O)N[C@@H](C)C(=O)N1CCC[C@H]1C(=O)N1CCC[C@H]1C(=O)N1CCC[C@H]1C(=O)N[C@@H](CO)C(N)=O [Example 462]	–	–	–	–	–	–	–	–	–	113	0.189	–	> 9950	> 9950	–	0.0128	0.125	0.0102
